Measured values reported in the kinase profiling compilation of Christmann-Franck et al. (2016).

Legend:
Assay in all cases: radiometric filter-binding kinase assay
[1] = biological target: DYRK2 (human) (UniProt Q92630)
[2] = biological target: MAPKAPK5 (human) (UniProt Q8IW41); details: compound 10.0 µM
[3] = biological target: MAPK9 (human) (UniProt P45984); details: compound 10.0 µM
[4] = biological target: CSK (human) (UniProt P41240)
[5] = biological target: MAPK8 (human) (UniProt P45983)
[6] = biological target: MAPK14 (human) (UniProt Q16539)
Chain of MAPK14 (human) (Q16539 whole entry, looked up): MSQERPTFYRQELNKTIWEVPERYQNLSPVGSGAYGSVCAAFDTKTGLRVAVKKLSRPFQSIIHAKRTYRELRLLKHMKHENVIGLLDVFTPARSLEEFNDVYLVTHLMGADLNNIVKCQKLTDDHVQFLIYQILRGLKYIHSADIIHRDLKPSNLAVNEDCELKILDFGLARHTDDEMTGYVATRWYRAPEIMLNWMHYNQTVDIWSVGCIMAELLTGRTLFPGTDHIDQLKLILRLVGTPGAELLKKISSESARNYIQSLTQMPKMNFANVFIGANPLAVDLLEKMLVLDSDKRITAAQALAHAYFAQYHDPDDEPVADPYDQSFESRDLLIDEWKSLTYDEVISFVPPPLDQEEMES

[7] = biological target: MAPK15 (human) (UniProt Q8TD08)
Chain of MAPK15 (human) (Q8TD08 whole entry, looked up): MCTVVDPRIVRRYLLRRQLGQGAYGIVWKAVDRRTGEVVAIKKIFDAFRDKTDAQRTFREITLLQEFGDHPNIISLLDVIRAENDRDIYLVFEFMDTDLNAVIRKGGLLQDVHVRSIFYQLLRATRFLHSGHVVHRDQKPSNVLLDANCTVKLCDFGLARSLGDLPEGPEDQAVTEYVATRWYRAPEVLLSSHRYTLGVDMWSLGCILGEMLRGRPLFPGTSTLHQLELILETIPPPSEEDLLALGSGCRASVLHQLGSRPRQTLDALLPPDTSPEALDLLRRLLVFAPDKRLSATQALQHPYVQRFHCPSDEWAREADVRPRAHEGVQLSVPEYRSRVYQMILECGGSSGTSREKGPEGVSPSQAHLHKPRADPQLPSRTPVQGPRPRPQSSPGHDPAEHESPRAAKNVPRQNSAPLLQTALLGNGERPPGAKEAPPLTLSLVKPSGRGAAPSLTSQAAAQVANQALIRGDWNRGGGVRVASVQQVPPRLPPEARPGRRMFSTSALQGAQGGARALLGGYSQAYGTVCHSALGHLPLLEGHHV

[8] = biological target: MKNK2 (human) (UniProt Q9HBH9)
[9] = biological target: PIM1 (human) (UniProt P11309)
[10] = biological target: HIPK2 (human) (UniProt Q9H2X6)
Chain of HIPK2 (human) (Q9H2X6 whole entry, looked up): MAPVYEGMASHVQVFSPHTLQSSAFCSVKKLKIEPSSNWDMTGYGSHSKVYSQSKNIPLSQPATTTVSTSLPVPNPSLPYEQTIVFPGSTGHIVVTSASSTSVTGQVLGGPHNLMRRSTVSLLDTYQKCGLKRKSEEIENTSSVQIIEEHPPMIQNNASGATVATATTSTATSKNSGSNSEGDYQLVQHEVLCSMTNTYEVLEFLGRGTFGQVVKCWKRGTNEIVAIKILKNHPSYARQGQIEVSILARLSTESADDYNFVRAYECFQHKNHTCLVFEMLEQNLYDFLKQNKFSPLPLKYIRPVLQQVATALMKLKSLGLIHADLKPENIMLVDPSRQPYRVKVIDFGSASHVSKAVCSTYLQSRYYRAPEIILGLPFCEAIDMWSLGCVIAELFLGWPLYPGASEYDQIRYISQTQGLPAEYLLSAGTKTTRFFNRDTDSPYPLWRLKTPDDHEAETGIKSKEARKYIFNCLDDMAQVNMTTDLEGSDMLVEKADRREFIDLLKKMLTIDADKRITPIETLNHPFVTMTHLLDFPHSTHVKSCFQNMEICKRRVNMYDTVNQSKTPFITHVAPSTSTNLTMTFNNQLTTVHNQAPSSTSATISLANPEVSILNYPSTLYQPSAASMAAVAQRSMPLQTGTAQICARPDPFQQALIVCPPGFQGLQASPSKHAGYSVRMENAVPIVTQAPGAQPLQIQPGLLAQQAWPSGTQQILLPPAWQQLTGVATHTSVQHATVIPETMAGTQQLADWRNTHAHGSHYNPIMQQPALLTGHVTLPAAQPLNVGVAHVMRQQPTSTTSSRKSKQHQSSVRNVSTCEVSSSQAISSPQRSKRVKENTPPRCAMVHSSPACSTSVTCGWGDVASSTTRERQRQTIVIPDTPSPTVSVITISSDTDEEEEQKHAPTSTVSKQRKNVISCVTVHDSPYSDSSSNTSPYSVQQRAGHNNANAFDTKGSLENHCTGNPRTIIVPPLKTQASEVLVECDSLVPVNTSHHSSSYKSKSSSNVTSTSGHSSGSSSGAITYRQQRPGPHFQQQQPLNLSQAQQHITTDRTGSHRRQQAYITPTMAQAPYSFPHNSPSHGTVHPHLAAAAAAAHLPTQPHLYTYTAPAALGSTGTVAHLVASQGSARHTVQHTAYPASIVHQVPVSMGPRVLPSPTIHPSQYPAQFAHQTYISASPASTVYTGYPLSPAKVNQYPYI

[11] = biological target: AURKB (human) (UniProt Q96GD4)
[12] = biological target: PRKACA (human) (UniProt P17612)
[13] = biological target: IGF1R (human) (UniProt P08069); details: compound 1.0 µM
[14] = biological target: PAK7 (human) (UniProt Q9P286)
Chain of PAK7 (human) (Q9P286 whole entry, looked up): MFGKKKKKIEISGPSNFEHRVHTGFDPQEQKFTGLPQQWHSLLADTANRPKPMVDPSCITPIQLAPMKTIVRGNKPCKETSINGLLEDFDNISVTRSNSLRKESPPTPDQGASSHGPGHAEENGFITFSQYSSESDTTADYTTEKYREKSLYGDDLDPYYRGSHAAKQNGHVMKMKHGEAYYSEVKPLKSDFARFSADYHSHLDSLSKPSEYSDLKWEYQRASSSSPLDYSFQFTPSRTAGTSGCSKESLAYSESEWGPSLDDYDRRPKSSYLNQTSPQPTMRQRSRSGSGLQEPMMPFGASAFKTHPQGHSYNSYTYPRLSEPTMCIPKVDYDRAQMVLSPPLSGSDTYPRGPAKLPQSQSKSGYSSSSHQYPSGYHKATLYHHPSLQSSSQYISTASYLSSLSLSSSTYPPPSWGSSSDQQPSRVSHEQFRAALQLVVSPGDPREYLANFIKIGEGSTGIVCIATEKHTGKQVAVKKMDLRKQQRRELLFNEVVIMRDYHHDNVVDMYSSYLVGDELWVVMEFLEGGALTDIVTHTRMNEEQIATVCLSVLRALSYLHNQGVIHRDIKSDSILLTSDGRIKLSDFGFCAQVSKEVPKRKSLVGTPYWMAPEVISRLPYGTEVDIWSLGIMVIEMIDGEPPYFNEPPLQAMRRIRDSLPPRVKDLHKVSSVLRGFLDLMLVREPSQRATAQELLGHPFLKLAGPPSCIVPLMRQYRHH

[15] = biological target: IKBKE (human) (UniProt Q14164)
Chain of IKBKE (human) (Q14164 whole entry, looked up): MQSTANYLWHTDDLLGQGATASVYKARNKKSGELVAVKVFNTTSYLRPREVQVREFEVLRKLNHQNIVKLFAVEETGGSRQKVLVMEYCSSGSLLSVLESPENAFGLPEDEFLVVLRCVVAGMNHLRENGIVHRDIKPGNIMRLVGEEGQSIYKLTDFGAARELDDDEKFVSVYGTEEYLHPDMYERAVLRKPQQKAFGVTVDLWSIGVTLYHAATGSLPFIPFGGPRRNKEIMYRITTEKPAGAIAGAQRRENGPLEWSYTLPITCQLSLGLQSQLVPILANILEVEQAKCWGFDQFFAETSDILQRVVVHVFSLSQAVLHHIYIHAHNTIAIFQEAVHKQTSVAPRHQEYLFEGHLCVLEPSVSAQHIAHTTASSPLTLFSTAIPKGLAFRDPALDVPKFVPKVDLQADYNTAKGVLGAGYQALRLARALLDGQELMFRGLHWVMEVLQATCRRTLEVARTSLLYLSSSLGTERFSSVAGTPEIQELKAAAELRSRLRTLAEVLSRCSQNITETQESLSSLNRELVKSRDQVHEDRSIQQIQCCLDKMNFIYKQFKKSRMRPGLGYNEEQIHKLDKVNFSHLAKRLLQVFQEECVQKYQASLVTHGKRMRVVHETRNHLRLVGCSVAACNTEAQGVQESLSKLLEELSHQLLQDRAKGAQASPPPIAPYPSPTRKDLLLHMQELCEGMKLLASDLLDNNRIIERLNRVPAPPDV

[16] = biological target: MELK (human) (UniProt Q14680)
[17] = biological target: EPHB3 (human) (UniProt P54753); details: compound 10.0 µM
[18] = biological target: CSNK1D (human) (UniProt P48730)
Chain of CSNK1D (human) (P48730 whole entry, looked up): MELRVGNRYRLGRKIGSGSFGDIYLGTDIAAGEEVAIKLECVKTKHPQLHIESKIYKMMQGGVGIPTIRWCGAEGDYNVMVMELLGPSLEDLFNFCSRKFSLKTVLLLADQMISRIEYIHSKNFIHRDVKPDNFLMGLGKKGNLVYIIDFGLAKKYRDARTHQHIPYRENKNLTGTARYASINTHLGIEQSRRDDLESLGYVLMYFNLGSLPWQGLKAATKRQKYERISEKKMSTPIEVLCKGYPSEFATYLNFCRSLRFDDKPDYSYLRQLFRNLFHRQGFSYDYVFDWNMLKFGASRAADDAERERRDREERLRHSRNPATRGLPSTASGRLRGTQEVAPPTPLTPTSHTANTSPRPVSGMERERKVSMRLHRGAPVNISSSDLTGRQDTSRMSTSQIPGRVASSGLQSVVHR

[19] = biological target: MAPKAPK2 (human) (UniProt P49137)
[20] = biological target: DYRK1A (human) (UniProt Q13627)
[21] = biological target: CaMK1 (human) (UniProt Q14012)
[22] = biological target: BTK (human) (UniProt Q06187)
[23] = biological target: MAPK12 (human) (UniProt P53778)
[24] = biological target: YES1 (human) (UniProt P07947)
[25] = biological target: PAK4 (human) (UniProt O96013)
Chain of PAK4 (human) (O96013 whole entry, looked up): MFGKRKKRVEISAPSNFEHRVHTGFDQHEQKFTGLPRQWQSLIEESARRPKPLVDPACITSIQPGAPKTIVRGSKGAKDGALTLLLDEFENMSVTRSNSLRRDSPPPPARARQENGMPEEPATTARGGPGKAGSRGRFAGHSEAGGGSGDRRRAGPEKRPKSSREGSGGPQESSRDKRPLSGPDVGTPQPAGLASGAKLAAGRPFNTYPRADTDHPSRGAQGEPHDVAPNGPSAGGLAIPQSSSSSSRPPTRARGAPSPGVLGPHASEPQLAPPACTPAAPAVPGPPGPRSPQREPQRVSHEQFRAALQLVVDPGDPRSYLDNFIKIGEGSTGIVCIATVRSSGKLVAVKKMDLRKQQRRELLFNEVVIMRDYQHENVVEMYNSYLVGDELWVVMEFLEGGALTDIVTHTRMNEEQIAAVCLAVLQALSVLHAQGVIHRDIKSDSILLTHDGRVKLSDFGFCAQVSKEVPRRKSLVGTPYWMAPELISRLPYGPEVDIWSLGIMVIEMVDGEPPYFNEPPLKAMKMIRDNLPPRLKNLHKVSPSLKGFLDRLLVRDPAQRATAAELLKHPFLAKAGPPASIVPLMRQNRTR

[26] = biological target: CAMKK2 (human) (UniProt Q96RR4)

Chain of CSK (human) (P41240 whole entry, looked up): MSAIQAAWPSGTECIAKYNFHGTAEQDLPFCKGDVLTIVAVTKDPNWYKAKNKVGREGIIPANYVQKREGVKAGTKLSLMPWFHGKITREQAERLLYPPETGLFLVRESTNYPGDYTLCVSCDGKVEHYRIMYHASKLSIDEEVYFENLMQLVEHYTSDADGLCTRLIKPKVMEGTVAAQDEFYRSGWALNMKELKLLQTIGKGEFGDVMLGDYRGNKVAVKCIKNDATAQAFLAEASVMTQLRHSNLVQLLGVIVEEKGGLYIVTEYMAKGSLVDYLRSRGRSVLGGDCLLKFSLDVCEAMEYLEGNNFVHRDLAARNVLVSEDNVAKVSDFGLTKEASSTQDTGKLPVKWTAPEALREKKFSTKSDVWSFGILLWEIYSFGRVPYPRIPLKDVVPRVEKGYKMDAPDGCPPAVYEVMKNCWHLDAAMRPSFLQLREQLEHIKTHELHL

Cc1cc(SCc2sc(-c3ccc(C(F)(F)F)cc3)nc2C)ccc1OCC(=O)O
residual activity ([1]; compound 1.0 µM): 103%
residual activity ([1]; compound 10.0 µM): 111%
residual activity [2]: 39%
residual activity [3]: 79%
residual activity ([4]; compound 1.0 µM): 98%
residual activity ([4]; compound 10.0 µM): 97%
residual activity ([5]; compound 1.0 µM): 83%
residual activity ([5]; compound 10.0 µM): 74%
residual activity ([6]; compound 1.0 µM): 82%
residual activity ([6]; compound 10.0 µM): 98%
residual activity ([7]; compound 1.0 µM): 103%
residual activity ([7]; compound 10.0 µM): 109%
residual activity ([8]; compound 1.0 µM): 99%
residual activity ([8]; compound 10.0 µM): 83%
residual activity ([9]; compound 1.0 µM): 79%
residual activity ([9]; compound 10.0 µM): 83%
residual activity ([10]; compound 1.0 µM): 101%
residual activity ([10]; compound 10.0 µM): 156%
residual activity ([11]; compound 1.0 µM): 110%
residual activity ([11]; compound 10.0 µM): 100%
residual activity ([12]; compound 1.0 µM): 110%
residual activity ([12]; compound 10.0 µM): 86%
residual activity [13]: 87%
residual activity ([14]; compound 1.0 µM): 97%
residual activity ([14]; compound 10.0 µM): 111%
residual activity ([15]; compound 1.0 µM): 92%
residual activity ([15]; compound 10.0 µM): 92%
residual activity ([16]; compound 1.0 µM): 79%
residual activity ([16]; compound 10.0 µM): 85%
residual activity [17]: 115%
residual activity ([18]; compound 1.0 µM): 82%
residual activity ([18]; compound 10.0 µM): 80%
residual activity ([19]; compound 1.0 µM): 97%
residual activity ([19]; compound 10.0 µM): 84%
residual activity ([20]; compound 1.0 µM): 87%
residual activity ([20]; compound 10.0 µM): 59%
residual activity ([21]; compound 1.0 µM): 95%
residual activity ([21]; compound 10.0 µM): 62%
residual activity ([22]; compound 1.0 µM): 92%
residual activity ([22]; compound 10.0 µM): 95%
residual activity ([23]; compound 1.0 µM): 108%
residual activity ([23]; compound 10.0 µM): 106%
residual activity ([24]; compound 1.0 µM): 98%
residual activity ([24]; compound 10.0 µM): 102%
residual activity ([25]; compound 1.0 µM): 87%
residual activity ([25]; compound 10.0 µM): 66%
residual activity ([26]; compound 1.0 µM): 86%
residual activity ([26]; compound 10.0 µM): 83%
